Measurements reported in patent publication US8163684B2, “Antimicrobials having polyquaternary ammoniums and alcohol-bearing amidoamines and methods for their use” (Abbott Medical Optics Inc., priority 2008, dated 2012).

What was measured:
S. marcescens [1] = assay: log drop at contact time of 6 hours in lens case with PureVision lens, S. marcescens; format: cell-based; conditions: Table 2 solution
Protocol: To test the biocidal efficacy of other solutions comprising the synergistic combination of a polyquaternary ammonium compound and an amidoamine having an alcohol group, three (3) solutions were prepared by blending together the components provided in Table 2. […] When utilized, the amidoamine was RAPD and the polyquaternary ammonium compound was polyquaternium-1. Table 2 below provides the ingredients of the contact lens care solutions tested as well as the activity of the solutions against S. marcescens after six hours.

Acanthamoeba polyphaga = assay: log drop in 6 hours in test tube, Acanthamoeba polyphaga; format: cell-based
Protocol: To test the biocidal efficacy of a solution comprising the synergistic combination of a polyquaternary ammonium compound and an amidoamine having an alcohol group, four (4) solutions were prepared by blending together the components provided in Table 4. Approximately three (3) mL of three of the solutions was placed into a test tube with A. polyphaga. When utilized, the amidoamine was RAPD and the polyquaternary ammonium compound was polyquaternium-1. Table 4 below provides the ingredients of the contact lens care solutions tested as well as the activity of the solutions against Acanthamoeba polyphaga after six hours. To test the biocidal efficacy of other solutions comprising the synergistic combination of a polyquaternary ammonium compound and an amidoamine having an alcohol group, three (3) solutions were prepared by blending together the components provided in Table 5. Approximately three (3) mL of two of the solutions was placed into a test tube with A. polyphaga. When utilized, the amidoamine was RAPD and the polyquaternary ammonium compound was polyquaternium-1. Table 5 below provides the ingredients of the contact lens care solutions tested as well as the activity of the solutions against A. polyphaga after six hours.

S. marcescens [2] = assay: log drop at contact time of 6 hours in test tube without lenses, S. marcescens; format: cell-based
Protocol: To test the biocidal efficacy of other solutions comprising the synergistic combination of a polyquaternary ammonium compound and an amidoamine having an alcohol group, three (3) solutions were prepared by blending together the components provided in Table 2. Approximately three (3) mL was placed into a test tube with S. marcescens. When utilized, the amidoamine was RAPD and the polyquaternary ammonium compound was polyquaternium-1. Table 2 below provides the ingredients of the contact lens care solutions tested as well as the activity of the solutions against S. marcescens after six hours. Further testing was performed to test the biocidal efficacy of other solutions comprising the synergistic combination of a polyquaternary ammonium compound and an amidoamine having an alcohol group. Approximately three (3) mL was placed into a test tube with S. marcescens. When utilized, the amidoamine was RAPD and the polyquaternary ammonium compound was polyquaternium-1. Table 3 below provides the ingredients of the contact lens care solutions tested as well as the activity of the solutions against S. marcescens after six hours.

F. solani = assay: log drop in 6 hours in lens case with PureVision lens, F. solani; format: cell-based; conditions: for log drop in 6 hours in lens case with PureVision lens, F. solani: sole antimicrobial, Table 1 solution, room temperature
From the text: (§1) Approximately three (3) mL of each solution was introduced into a lens case containing a PureVision® soft contact lens. Each contact lens was maintained in this solution at room temperature for about six (6) hours. The amidoamine used was ricinoleamidopropyl dimethylamine (RAPD), an amidoamine with an alcohol group. Table 1 below provides the ingredients of the contact lens care solutions tested as well as the activity of the various solutions against Candida and Fusarium after six hours.

C. albicans = assay: log drop in 6 hours in lens case with PureVision lens, C. albicans; format: cell-based, Candida albicans
From the text: as §1
To test the biocidal efficacy of a solution comprising the synergistic combination of a polyquaternary ammonium compound and an amidoamine having an alcohol group, four (4) solutions were prepared by blending together the components provided in Table 4. Approximately three (3) mL of three of the solutions was placed into a test tube with A. polyphaga. When utilized, the amidoamine was RAPD and the polyquaternary ammonium compound was polyquaternium-1. Table 4 below provides the ingredients of the contact lens care solutions tested as well as the activity of the solutions against Acanthamoeba polyphaga after six hours.

[3] = test system: trophzoite and cyst-type Acanthamoeba; conditions: stated as known; cited from earlier work
Fusarium = conditions: stated as known; cited from earlier work
[4] = RAPD 0.0005 % w/w, no CPC, no PQ-1, Table 4 solution
[5] = RAPD as the sole antimicrobial agent, Table 1 solutions

CCCCCC[C@@H](O)C/C=C\CCCCCCCC(=O)NCCCN(C)C [RAPD, ricinoleamidopropyl dimethylamine]
log drop at contact time of 6 hours in lens case with PureVision lens, S. marcescens (S. marcescens [1]; RAPD 0.002 % w/w, no PQ-1): 0.91 log
log drop in 6 hours in test tube, Acanthamoeba polyphaga (Acanthamoeba polyphaga; [4]): 0.18 log
log drop in 6 hours in test tube, A. polyphaga (Acanthamoeba polyphaga; RAPD 0.002 % w/w, no PQ-1, no CPC, Table 5 solution): 1.90 log
log drop at contact time of 6 hours in test tube without lenses, S. marcescens (S. marcescens [2]; RAPD 0.0005 % w/w, no PQ-1, Table 3 solution): 0.44 log
log drop at contact time of 6 hours in test tube without lenses, S. marcescens (S. marcescens [2]; RAPD 0.001 % w/w, no PQ-1, Table 3 solution): 1.51 log
log drop at contact time of 6 hours in test tube without lenses, S. marcescens (S. marcescens [2]; RAPD 0.002 % w/w, no PQ-1, Table 2 solution): 1.77 log
log drop in 6 hours in lens case with PureVision lens, F. solani (F. solani; RAPD 0.0002 % w/w): 0.48 log
log drop in 6 hours in lens case with PureVision lens, F. solani (F. solani; RAPD 0.0005 % w/w): 0.37 log
log drop in 6 hours in lens case with PureVision lens, F. solani (F. solani; RAPD 0.001 % w/w): 0.35 log
biocidal activity against Fusarium (in words) (F. solani; [5]): very low biocidal activity
log drop in 6 hours in lens case with PureVision lens, C. albicans (C. albicans; RAPD 0.0002 % w/w, sole antimicrobial, Table 1 solution, room temperature): 0.26 log
log drop in 6 hours in lens case with PureVision lens, C. albicans (C. albicans; [4]): <0.28 log
log drop in 6 hours in lens case with PureVision lens, C. albicans (C. albicans; RAPD 0.0005 % w/w, sole antimicrobial, Table 1 solution, room temperature): 0.33 log
log drop in 6 hours in lens case with PureVision lens, C. albicans (C. albicans; RAPD 0.001 % w/w, sole antimicrobial, Table 1 solution, room temperature): 0.21 log
biocidal activity against Candida (in words) (C. albicans; [5]): very low biocidal activity

CCCCC(CC)CNC(=N)NC(=N)NCCCCCCNC(=N)NC(=N)NCC(CC)CCCC (stereo not shown) [alexidine]
biocidal activity against trophzoite and cyst-type Acanthamoeba (in words) [3]: very biocidal
biocidal activity against Fusarium (in words) (Fusarium): not very biocidal

poly[(dimethyliminio)-2-butene-1,4-diylchloride (1:1)], a-[4-[tris(2-hydroxyethyl)ammonio]-2-buten-1-yl]-w-[tris(2-hydroxyethyl)ammonio]-chloride [PQ-1]
log drop at contact time of 6 hours in lens case with PureVision lens, S. marcescens (S. marcescens [1]; PQ-1 0.001 % w/w, no RAPD): 1.07 log
log drop at contact time of 6 hours in test tube without lenses, S. marcescens (S. marcescens [2]; PQ-1 0.001 % w/w, no RAPD, citrate/borate solution of Tables 2 and 3): 1.53 log
